Holding throughout (conditions): incubation time: 72 h
Test [1] relates to HCC1143. The test can be described thus: normalised response (% of control), CellTiter-Glo; higher = more viable cells (100 = DMSO, 0 = benzethonium chloride kill control). An outline of the steps: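 Each entry is the normalised signal at a single concentration within a series. The series comprised 5 concentrations in 10-fold steps over a compound-specific 10,000-fold range, placed in 384-well plates into which breast cancer cell lines were seeded as 20 µl suspension and incubated 72 h. CellTox Green (485/520 nm) fluorescence and then CellTiter-Glo luminescence were read, with signals normalised per plate to 0.1 % DMSO (100) and a positive kill control (0).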

In test [2] the test system is DU-4475. The test can be described thus: normalised viability (% of control), CellTiter-Blue; higher = more viable cells (about 100 = DMSO control). An outline of the steps: (§1)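 Breast cancer cell lines in 20 µl suspension were seeded onto 384-well plates pre-loaded with compound dissolved in 5 µl medium, then incubated 72 h. CellTiter-Blue reagent (2.5 µl) was added for 2 h at 37 °C and fluorescence read at 560/590 nm. Each plate was normalised to vehicle (100) and a positive kill control (0), with Z'-factor quality control. The value is normalised viability at one listed concentration of the series.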
In general terms: The colour change of resazurin is a common sign of viable cells or microbes.

For test [3], the system named is HDQ-P1. The test is described as above. An outline of the steps:
as §1

A further test deals with BT-474. The test can be described thus: normalised response (% of control), CellTiter-Glo; higher = more viable cells (100 = DMSO, 0 = benzethonium chloride kill control). Here is the method: (§2)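 DSRT, 72 h incubation, CellTox Green / CellTiter-Glo readout. Signal is normalised to DMSO and benzethonium chloride controls. Value is the normalised response at the highest dose.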

For a further test, the system named is BT-549. The test is described as above. Here is the method: as §2
For the next test, the system named is CAL-120. The description is as above. Here is the method: as §2
The subject of test [4] is CAL-148. The test is described as above. Here is the method:
as §2

The next test deals with CAL-51. The test is described as above. Here is the method: as §2
The subject of the next test is CAL-85-1. The description is as above. Here is the method:
as §2

The subject of test [5] is DU-4475. The description is as above. Here is the method: as §2
Test [6] relates to HCC1143. The test is described as above. Here is the method:
as §2
This is another data set of the same source.

For a further test, the system named is HCC1599. The description is as above. Here is the method:
as §2

The subject of a further test is HCC1937. Described as above. Here is the method: as §2
Test [7] deals with HDQ-P1. Described as above. Here is the method:
as §2

In the next test the test system is Hs578T. The description is as above. Here is the method:
as §2

A further test relates to MCF-10A. The test is described as above. Here is the method: as §2
In a further test the test system is MDA-MB-231. Described as above. Here is the method: as §2
The next test deals with MDA-MB-436. The test is described as above. Here is the method: as §2
Another test has as its system MDA-MB-453. The description is as above. Here is the method:
as §2

Another test has as its system MDA-MB-468. Described as above. Here is the method: as §2
The test system of another test is MFM-223. Described as above. Here is the method:
as §2

Another test has as its system SK-BR-3. Described as above. Here is the method: as §2
For test [8], the system named is CAL-148. The test can be described thus: normalised viability (% of control), CellTiter-Blue; higher = more viable cells (about 100 = DMSO control). An outline of the steps: as §1

Each structure is given as a SMILES string. Where “and” joins values, the source holds several entries; their conditions need not be identical. Equal values may be shown once.

As for `COCC1(CO)C(=O)C2CCN1CC2` (stereo not drawn) [Prima-1 Met] (1000 nM), the normalised response in the test with HCC1143 [1] was 105%.
As for `CCc1c2c(nc3ccc(OC(=O)N4CCC(N5CCCCC5)CC4)cc13)-c1cc3c(c(=O)n1C2)COC(=O)[C@]3(O)CC` [Irinotecan] (10000 nM), the normalised viability in the test with DU-4475 [2] was 4.69% and 18.8%; in the test with HDQ-P1 [3], 64% and 80%. In addition, the normalised response in the test on BT-474 is 69.5%; with BT-549, 49.1%; with CAL-120, 70%; in the test with CAL-148 [4] it was 26.4%; in the test on CAL-51, 34.8%; in the test with CAL-85-1, 63.6%. Also, the normalised response in the test on DU-4475 [5] was 41.8%; with HCC1143 [6], 60.1%; in the test with HCC1599, 29.8%; with HCC1937 it was 70.9%; with HDQ-P1 [7] it was 73.3%; with Hs578T, 86.9%. The normalised response worked out at 68.2% in the test with MCF-10A; 84.8% with MDA-MB-231; 36.8% with MDA-MB-436; 102% in the test on MDA-MB-453; 23.2% in the test with MDA-MB-468; 96.5% with MFM-223. In the test on SK-BR-3, this molecule had a normalised response of 47.4%.
For the molecule `Oc1ccc2c(c1)CC[C@H](c1ccccc1)[C@@H]2c1ccc(OCCN2CCCC2)cc1` [Lasofoxifene] (1000 nM), the normalised viability in the test on CAL-148 [8] stood at 107%; with DU-4475 [2] it was 97.8%; in the test with HDQ-P1 [3] it was 125%. The normalised response came to 103% in the test on BT-474; 95.2% in the test with BT-549; 114% in the test with CAL-120; 122% with CAL-148 [4]; 78.9% with CAL-51; 100% with CAL-85-1. The normalised response with DU-4475 [5] was found to be 96.2%; in the test on HCC1143 [6], 97.7%; in the test with HCC1599, 99.2%; with HCC1937, 99.3%; with HDQ-P1 [7] it was 94.1%; with Hs578T it was 107%. Further, the normalised response in the test on MCF-10A amounted to 117%; in the test with MDA-MB-231, 102%; in the test on MDA-MB-436, 110%; with MDA-MB-453, 88.7%; with MDA-MB-468, 99.7%; with MFM-223 it was 102%. This molecule came in with a normalised response with SK-BR-3 of 105%.
Turning to `CNC(=O)c1cc(Oc2ccc(NC(=O)Nc3ccc(Cl)c(C(F)(F)F)c3)c(F)c2)ccn1` [Regorafenib] (1000 nM), the normalised response in the test with HCC1143 [1] worked out at 93.5%.
Same read-out and setting: with `COc1cc2ncnc(Nc3ccc(F)c(Cl)c3)c2cc1OCCCN1CCOCC1` [Gefitinib] (1000 nM) the figure was 96.2%; with `O=C(/C=C/c1cccc(S(=O)(=O)Nc2ccccc2)c1)NO` [Belinostat] (1000 nM), 47.3%.
Regarding `NC(=O)c1ccc(I)c([N+](=O)[O-])c1` [Iniparib] (1000 nM), the normalised response in the test on HCC1143 [1] turned out to be 87.7%.
Same read-out and setting: with `C=C1C[C@@H]2[C@H](CC[C@]3(C)C(=O)CC[C@@H]23)[C@@]2(C)C=CC(=O)C=C12` [Exemestane] (1000 nM) the figure was 107%.
Regarding `C=C1C[C@@H]2[C@H](CC[C@]3(C)C(=O)CC[C@@H]23)[C@@]2(C)C=CC(=O)C=C12` [Exemestane] (10000 nM), the results for the normalised viability in the test with CAL-148 [8], in the test with DU-4475 [2] and in the test with HDQ-P1 [3] were 104%, 88.9% and 103%, respectively. For the same molecule, the normalised response was found to be 108% in the test on BT-474; 94.5% with BT-549; 101% with CAL-120; 112% in the test with CAL-148 [4]; 81.7% in the test with CAL-51; 97.7% with CAL-85-1. Further, the normalised response in the test with DU-4475 [5] came to 108%; in the test on HCC1143 [6], 94.1%; in the test with HCC1599, 107%; in the test on HCC1937 it was 89.5%; in the test on HDQ-P1 [7], 92.3%; in the test on Hs578T, 102%. For the same molecule, the normalised response in the test on MCF-10A was found to be 107%; with MDA-MB-231, 104%; with MDA-MB-436, 88%; with MDA-MB-453 it was 95.7%; in the test on MDA-MB-468 it was 76.3%; in the test on MFM-223, 94.5%. The normalised response with SK-BR-3 was 89.3%.
The molecule `COc1cc(OC2CCN(C)CC2)ccc1Nc1ncc2c(n1)n(C1CCCC1)c(=O)n2C` [AZ 3146] (1000 nM) had a normalised response in the test with HCC1143 [1] of 99.2%.
On the same count and under the same terms, with `CN(C)c1nc(N(C)C)nc(N(C)C)n1` [Altretamine] (1000 nM) the figure was 103%.
The same measure, in the same setting: with `CCc1c2c(nc3ccc(OC(=O)N4CCC(N5CCCCC5)CC4)cc13)-c1cc3c(c(=O)n1C2)COC(=O)[C@]3(O)CC` [Irinotecan] (1000 nM) the figure was 88.1%.
With `Cc1[nH]c2ccccc2c1CCNCc1ccc(/C=C/C(=O)NO)cc1` [Panobinostat] (1000 nM), the normalised viability was found to be 0.37% in the test on CAL-148 [8], 4.66% with DU-4475 [2] and 15% with HDQ-P1 [3]. Also, the normalised response came out at 7.51% in the test on BT-474; 14.4% in the test with BT-549; 9.89% in the test with CAL-120; 0.3% in the test with CAL-148 [4]; 8.29% in the test on CAL-51; 3.87% in the test on CAL-85-1. Besides, the normalised response with DU-4475 [5] turned out to be 13.9%; with HCC1143 [6], 13.4%; in the test on HCC1599, 6.35%; in the test with HCC1937 it was 20.7%; in the test with HDQ-P1 [7], 26.4%; in the test on Hs578T, 5.17%. The normalised response with MCF-10A stood at 11%; in the test on MDA-MB-231, 6.11%; in the test with MDA-MB-436, 30.2%; in the test on MDA-MB-453, 2.01%; with MDA-MB-468, 7.12%; in the test on MFM-223, 29.4%. The molecule further showed a normalised response in the test on SK-BR-3 of 0.27%.
In turn, `Oc1ccc2c(c1)CC[C@H](c1ccccc1)[C@@H]2c1ccc(OCCN2CCCC2)cc1` [Lasofoxifene] (100 nM) returned a normalised response in the test with HCC1143 [1] of 106%.
The same measure, in the same setting: with `Cc1ccc(NC(=O)c2ccc(CN3CCN(C)CC3)cc2)cc1Nc1nc(-c2cccnc2)cs1` [Masitinib] (1000 nM) the figure was 99%.

The record behind these values is the supplement of paper PMC4862054.
